Source: paper PMC9586926, “An efflux-susceptible antibiotic-adjuvant with systemic efficacy against mouse infections” (Scientific Reports, 2022)
Where a SMILES comes first, the peptide text is derived from it. [ ]: non-standard residue; d: D form. The star is where a group is joined. 12Ado = NCCCCCCCCCCCC(=O)O; Decanoyl = CCCCCCCCCC(=O)*; Dab = NCC[C@H](N)C(=O)O

Tests used:
K. pneumoniae = assay: MIC, broth microdilution; format: cell-based, Klebsiella pneumoniae; settings: broth microdilution in LB, 18–24 h, 37 °C; n = 2 strains
Text: (§1) Bacteria used in this study consisted of standard American Type Culture Collection (ATCC; Biological Industries, Beit Haemek, Israel) strains, clinically isolated (CI; Sourasky Medical Center, Tel Aviv, Israel) strains, as well as isogenic mutant strains. Gram-negative bacteria included Acinetobacter baumannii ATCC 19606; Escherichia coli ATCC 25922, 35218, CFT073, CI 14384, 16327, and the isogenic pair Ag100 (wild-type) and its efflux deficient mutant Ag100a (ΔacrAB); Klebsiella pneumoniae CI 1287, 224; Pseudomonas aeruginosa ATCC 27853, CI 1278, 8634; Salmonella enterica serovar Typhimurium ATCC 14028 (wild-type) and its isogenic efflux deficient mutant ΔacrAB. Bacteria were grown in Luria–Bertani broth (LB; 5 g/l NaCl, 5 g/l yeast extract, 10 g/l tryptone; pH = 7.0) at 37 °C with shaking. Over-night cultures were diluted 10-folds into fresh growth-medium and incubated at 37 °C with shaking until reaching mid-logarithmic phase. Then, bacterial concentrations were adjusted using O.D.600 nm measurements, and bacteria were subjected to the experimental procedures listed herein.
(§2) MIC was determined according to the broth microdilution method: antimicrobials were subjected to serial twofold dilutions in LB medium, and incubated with 5 × 10^5 CFU/ml of bacteria (final volume of 200 µl) for 18–24 h at 37 °C. Then, O.D.620 nm was measured (BioTek Instruments Synergy HT; Winooski, VT, USA), and the MIC was defined as the lowest antimicrobial concentration for which no increase in O.D.620 nm was evident, compared to the untreated control.

E. coli 25922 [1] = assay: Outer membrane permeabilization, NPN fluorescence; format: cell-based, Escherichia coli
Procedure: Lipopeptides ability to permeabilize the OM was evaluated using fluorescent measurements of N-phenyl-1-naphthylamine (NPN)[67]. 200 µl of an over-night culture were diluted into 10 ml of fresh LB medium and incubated at 37 °C with shaking until reaching O.D.600 nm = 0.5. The culture was then centrifuged at 10,000 RCF for 3 min, the supernatant aspirated, and the pellet resuspended in equal volume of 5 mM HEPES containing 5 mM glucose (pH = 7.2). This suspension was then mixed with NPN (5 mM in acetone) to reach a final NPN concentration of 10 µM. Then, 190 µl of this mixture were dispensed into black microtiter plates, mixed with 10 µl of HEPES containing serial twofold dilutions of lipopeptides and fluorescence (excitation: 360 nm; emission: 460 nm) was recorded immediately for up to 10 min at 37 °C with shaking[29] (BioTek Instruments Synergy HT; Winooski, VT, USA). In a modified version of this assay, in which efflux was inhibited, bacteria (similarly prepared) were incubated with the lipopeptides in presence or absence of 100 µM CCCP for 5 min. Samples were then twice centrifuged at 10,000 RCF for 3 min, the supernatant aspirated, and the pellet resuspended in equal volume of 5 mM HEPES containing 20 mM glucose (pH = 7.2), so as to re-energize the efflux machinery. NPN was then added (final concentration of 10 µM) and fluorescence was recorded immediately thereafter.

[2] = Acute toxicity, maximal tolerated dose; format: in vivo, mice; settings: S.C., up to 40 mg/kg, seven-day monitoring
Procedure: The study is reported in accordance with ARRIVE guidelines.
The maximal tolerated dose (MTD) was determined after sub-cutaneous (S.C.) administration of lipopeptides solutions (0.2 ml). Mice (N = 3 per group) were monitored for up to 7 days and their physiological condition was scored on a scale of 1 to 6, in which a score of 1 indicates no apparent signs of distress, and a score of 6 signifies severe distress necessitating the mice immediate euthanasia.

E. coli 25922 [3] = format: cell-based, Escherichia coli
Procedure: as §2
(§3) Lipopeptides and antibiotics combinations were assessed using a modified version of the checkerboard titration method: Antibiotics MIC was determined in LB medium containing sub-inhibitory lipopeptide concentrations. The sensitization factor (SF)[46] was then calculated by SF = MICA/MICC, where “MICA” is the antibiotic MIC in absence of an adjuvant and “MICC “ is the antibiotic MIC in presence of an adjuvant, for a specified adjuvant concentration. Combinations were classified as synergistic when antibiotics MIC were decreased by > 4 folds. Alternatively, the fractional inhibitory concentration index (FICI) was calculated by FICI = MICC1/MICA1 + MICC2/MICA2, where “MICC1” and “MICC2” respectively specify the antibiotic and the adjuvant MIC values upon their combination, whereas “MICA1” and “MICA2” respectively specify the antibiotic and the adjuvant MIC values when tested individually. Combinations were classified as synergistic for FICI < 0.5.

RAW 264.7 = assay: Cytotoxicity, Alamar blue; format: cell-based, murine; settings: 24 h incubation, read-out: IC50 RAW 264.7 (50% inhibition of cells respiration)
Procedure: Cell lines used in this study included murine RAW 264.7 macrophages and human embryonic kidney HEK-293FT cells (ATCC, Biological Industries, Beit Haemek, Israel). Cells were grown in Dulbecco’s modified eagle medium (DMEM) containing […] glucose, L-glutamine, sodium bicarbonate and sodium pyruvate, supplemented with 10% fetal bovine serum and pen-strep, at 37 °C and 5% CO2.
Lipopeptides cytotoxicity was determined using fluorescent measurements of reduced resazurin. 2 × 10^4 cells were first cultured in 96-well plates over-night (final volume of 100 µl) at 37 °C and 5% CO2. Then, the medium was removed and cells were incubated for an additional 24 h with serial twofold dilutions of the lipopeptides in growth medium. Then, 10 µl of Alamar blue were added and plates were incubated for 3 h, after which fluorescence (excitation: 530 nm; emission: 590 nm) of the reduced resazurin was recorded (BioTek Instruments Synergy HT; Winooski, VT, USA).

K. pneumoniae 1287 = assay: Combination with antibiotics, modified checkerboard titration; format: cell-based, Klebsiella pneumoniae
Procedure: as §2, §3

E. coli 25922 [4] = assay: Growth / time-kill kinetics; format: cell-based, Escherichia coli; settings: 10 µM C10BBc12B, 1 µg/ml erythromycin or 20 ng/ml rifampin alone
Procedure: Antimicrobials mode of action was determined according to the rate of bacterial killing. Varying concentrations of lipopeptides, antibiotics and combinations thereof were mixed in LB medium with 5 × 10^5 CFU/ml of bacteria (final volume of 1 ml) and incubated at 37 °C with shaking. At the designated time-points aliquots were serially tenfold diluted in saline, plated on LB agar, and incubated over-night at 37 °C for enumeration.

P. aeruginosa = assay: MIC, broth microdilution; format: cell-based, Pseudomonas aeruginosa; settings: broth microdilution in LB, 18–24 h, 37 °C; n = 3 strains
Text: as §1, §2

CCCCCCCCCC(=O)N[C@@H](CCN)C(=O)N[C@@H](CCN)C(=O)NCCCCCCCCCCCC(=O)N[C@@H](CCN)C(N)=O [C10BBc12B, decanoyl-bis.diaminobutyrate-aminododecanoyl-diaminobutyrate-amide] (Decanoyl-[Dab][Dab][12Ado][Dab]-NH2)
MIC K. pneumoniae (n=2) (K. pneumoniae): > 50 µM
reduction of NPN fluorescence by 10 mM MgCl2 (E. coli 25922 [1]): almost complete
signs of distress [2]: no apparent physiological signs of distress
relationship with EPI PAβN in rifampin potentiation (E. coli 25922 [3]; 10 µM C10BBc12B ± 5 µg/ml PAβN, SF for rifampin): antagonistic relationship
sensitization efficiency to rifampin (E. coli 25922 [3]; E. coli, from isobologram data): 65,000 folds
IC50 (RAW 264.7): > 50 µM
sensitization efficiency to rifampin (K. pneumoniae 1287): 130,000 folds
effect on bacterial proliferation, individual agent (E. coli 25922 [4]): unable to significantly alter bacterial proliferation
MIC P. aeruginosa (n=3) (P. aeruginosa): ≥ 50 µM
